Experiments:
[1] = target: C-8 sterol isomerase ERG2 (Saccharomyces cerevisiae S288c, UniProt P32352); test: Affinity for ERG2 of Saccharomyces cerevisiae using [3H]ifenprodil or (+)-[3H]pentazocine radioligand
[2] = target: 3-beta-hydroxysteroid-Delta(8),Delta(7)-isomerase (Homo sapiens, UniProt Q15125); test: Affinity for human EMP expressed in ERG2 deficient strain of Saccharomyces cerevisiae using [3H]ifenprodil or (+)-[3H]pentazocine as radioligand
Sequence of 3-beta-hydroxysteroid-Delta(8),Delta(7)-isomerase (Q15125 whole entry): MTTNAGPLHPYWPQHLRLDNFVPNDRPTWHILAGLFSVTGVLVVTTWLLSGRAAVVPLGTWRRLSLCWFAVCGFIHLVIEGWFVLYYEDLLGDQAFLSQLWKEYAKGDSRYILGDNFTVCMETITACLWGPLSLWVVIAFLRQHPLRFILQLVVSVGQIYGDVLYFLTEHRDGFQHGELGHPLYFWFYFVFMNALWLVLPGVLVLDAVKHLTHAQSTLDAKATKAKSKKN

Sequence of C-8 sterol isomerase ERG2 (P32352 whole entry): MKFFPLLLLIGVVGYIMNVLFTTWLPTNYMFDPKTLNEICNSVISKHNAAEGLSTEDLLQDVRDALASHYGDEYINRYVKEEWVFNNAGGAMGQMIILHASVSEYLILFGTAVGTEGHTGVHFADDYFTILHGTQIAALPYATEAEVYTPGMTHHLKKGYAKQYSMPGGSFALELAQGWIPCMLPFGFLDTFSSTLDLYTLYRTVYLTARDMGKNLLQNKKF

Row | Compound | Ki ([1]; read-out: Ki) | Ki [2] | Ki [1]
1 | COc1cc(OC)c(C(=O)CCCN2CCCC2)c(OC)c1 [BUFLOMEDIL] | 7150 nM | 60 nM | 
2 | CCCCCCCOc1ccccc1NC(=O)OC(C)CN(CC)CC (stereo not given) | 2800 nM | 51 nM | 
3 | CC(Cc1ccc(C(C)(C)C)cc1)CN1C[C@@H](C)O[C@@H](C)C1 (stereo not given in full) [FENPROPIMORPH] | 0.05 nM | 30 nM | 
4 | CCCN(CCC)CCc1ccc(OC)c(OCCc2ccccc2)c1 |  | 15 nM | 
5 | CC1CC[C@]2(NC1)O[C@H]1C[C@H]3[C@@H]4CC[C@H]5C[C@@H](O)CC[C@]5(C)[C@H]4CC[C@]3(C)[C@H]1[C@@H]2C (stereo not given in full) | 387 nM | 583 nM | 
6 | CN1CCN(CCCN2c3ccccc3Sc3ccc(C(F)(F)F)cc32)CC1 [TRIFLUOPERAZINE] | 500 nM | 8 nM | 
7 | CC(C)=CCN1CC[C@@]2(C)c3cc(O)ccc3CC1[C@H]2C | 1000 nM | 500 nM | 
8 | CN(c1nc2ccccc2s1)C1CCN(CCCCOc2ccccc2)C1 (stereo not given) | 169 nM | 450 nM | 
9 | N=C(NCc1ccccc1)Nc1nc(-c2cc3ccccc3[nH]2)cs1 | 31700 nM | 8500 nM | 
10 | CC1CC[C@@]2(NC1)O[C@H]1C[C@H]3[C@@H]4CC=C5C[C@@H](O)CC[C@]5(C)[C@H]4CC[C@]3(C)[C@H]1[C@@H]2C (stereo not given in full) | 1170 nM | > 100000 nM | 
11 | CC(C)[C@](C#N)(CCCN(C)CCc1ccccc1)c1ccccc1 | 65 nM | 6 nM | 
12 | CCN(CC)CCOc1ccc(/C(=C(/Cl)c2ccccc2)c2ccccc2)cc1 [ENCLOMIPHENE] | 160 nM | 1 nM | 
13 | OCCN1CCN(CCCN2c3ccccc3C=Cc3ccccc32)CC1 [OPIPRAMOL] | 17 nM | 13 nM | 
14 | CC/C(=C(\c1ccccc1)c1ccc(OCCN(C)C)cc1)c1ccccc1 [TAMOXIFEN] |  |  | 1500 nM
15 | C[C@]12C[C@H](O)[C@H]3[C@@H](CCC4=CC(=O)CC[C@@]43C)[C@@H]1CC[C@@H]2C(=O)CO [CORTICOSTERONE] | > 100000 nM | > 100000 nM | 
16 | CC(C)CCCC(C)CCCC(C)N1CC[C@H]2[C@H](C)[C@@H](O)CC[C@]2(C)C1 (stereo not given in full) | 0.4 nM | 0.6 nM | 
17 | C[C@]12CC[C@H]3[C@@H](CCC4=CC(=O)CC[C@@]43C)[C@@H]1CC[C@@H]2O [TESTOSTERONE] | 7760 nM | > 100000 nM | 
18 | O=C(CCCN1CCC(O)(c2cccc(C(F)(F)F)c2)CC1)c1ccc(F)cc1 [TRIFLUPERIDOL] | 0.15 nM | 165 nM | 
19 | CCCCN1CCC2(CCCc3ccccc32)CC1 | 5 nM | 1 nM | 
20 | N=C(NCCSC(c1ccccc1)c1ccccc1)NCCc1cnc[nH]1 | 170 nM | 39 nM | 
21 | CN(C/C=C/c1ccccc1)Cc1cccc2ccccc12 [NAFTIFINE] | 310 nM | 1500 nM | 

Row | Compound | Ki ([1]; read-out: Ki) | Ki [2] | Ki [1]
22 | CC(=O)[C@H]1CC[C@H]2[C@@H]3CCC4=CC(=O)CC[C@]4(C)[C@H]3CC[C@]12C [PROGESTERONE] | 4430 nM | > 100000 nM | 
23 | CCN(C/C=C/c1ccc(C2CCCCC2)c(Cl)c1)C1CCCCC1 | 9 nM | 3 nM | 
24 | C=CCN1CC[C@@]2(C)c3cc(O)ccc3CC1[C@H]2C | 4700 nM | 9300 nM | 
25 | CCN(CC)CCO[C@H]1CC[C@@]2(C)C(=CC[C@@H]3[C@@H]2CC[C@]2(C)C(=O)CC[C@@H]32)C1 | 0.2 nM | 2 nM | 
26 | C[C@H]1CCC2[C@@H](C)[C@H]3[C@H](C[C@H]4C5CC=C6C[C@@H](O)CC[C@]6(C)[C@H]5CC[C@]34C)N2C1 (single isomer, unassigned) | > 100000 nM | 441 nM | 
27 | COc1ccc2c(c1)CCC(c1ccccc1)=C2c1ccc(OCCN2CCCC2)cc1 [NAFOXIDINE] | 232 nM |  | 
28 | O=C(c1ccc(OCCN2CCCCC2)cc1)c1c(-c2ccc(O)cc2)sc2cc(O)ccc12 [RALOXIFENE] | 66 nM | 1 nM | 
29 | CN(C/C=C/C#CC(C)(C)C)Cc1cccc2ccccc12 [TERBINAFINE] | > 50000 nM | > 50000 nM | 
30 | CCCCCCCCCCCCC(C#N)(CCCN(C)CCc1ccccc1)c1ccccc1 (stereo not given) [RONIPAMIL] | 13 nM | 2 nM | 
31 | CCN(CC)CCOc1ccc(C(O)(Cc2ccc(Cl)cc2)c2ccc(C)cc2)cc1 (stereo not given) [TRIPARANOL] | 2 nM | 11 nM | 
32 | Cc1ccccc1NC(=N)Nc1ccccc1C [DITOLYLGUANIDINE] | 2000 nM | 6700 nM | 
33 | CCCN1CCC[C@H](c2cccc(O)c2)C1 | 1200 nM | 2200 nM | 
34 | CCN(CC)CCOc1ccc(/C(=C(\Cl)c2ccccc2)c2ccccc2)cc1 [ZUCLOMIPHENE] | 2 nM | 2 nM | 
35 | CC1=C2C(=O)[C@H]3[C@@H](CC=C4C[C@@H](O)CC[C@@]43C)[C@@H]2CC[C@]12O[C@@H]1C[C@H](C)CN[C@H]1[C@H]2C [JERVINE] | 284 nM | > 100000 nM | 
36 | CCCCCCCCCCCCCN1C[C@@H](C)O[C@@H](C)C1 | 0.09 nM | 1 nM | 
37 | CC1=C2C[C@H]3[C@@H](CC=C4C[C@@H](O)CC[C@@]43C)[C@@H]2CC[C@]12O[C@]1(C)C[C@H](C)CN[C@H]1[C@H]2C | 500 nM | 654 nM | 
38 | CC(C)[C@@](C#N)(CCCN(C)CCc1ccccc1)c1ccccc1 [LEVEMOPAMIL] | 74 nM | 18 nM | 
39 | O=C(CCCN1CCC(O)(c2ccc(Cl)cc2)CC1)c1ccc(F)cc1 [HALOPERIDOL] | 0.5 nM | 190 nM | 
40 | O=C(O)c1ccc(CCN2CCN(C/C=C/c3ccc(Cl)cc3)CC2)cc1 | 16500 nM | 34000 nM | 
41 | C[C@H]([C@@H](O)c1ccc(O)cc1)N1CCC(Cc2ccccc2)CC1 [(S,R)-IFENPRODIL] | 1 nM |  | 
42 | CC/C(=C(/CC)c1ccc(OCCN(CC)CC)cc1)c1ccc(OCCN(CC)CC)cc1 | 0.7 nM | 54 nM | 

Source: ChEMBL document CHEMBL1140325, “Discovery of high-affinity ligands of sigma1 receptor, ERG2, and emopamil binding protein by pharmacophore modeling and virtual screening” (J Med Chem, 2005)
